Experimental data as given in ChEMBL document CHEMBL2407075, “Sulphonamido-quinoxalines: search for anticancer agent” (Eur J Med Chem, 2013).

Experiment: Oral bioavailability in human
Type: ADME, organism-based
Settings: in silico prediction

Compared with `CC(=O)c1cccc(NS(=O)(=O)c2ccc3nc(-c4ccccc4)c(-c4ccccc4)nc3c2)c1`, `O=[N+]([O-])c1cccc(NS(=O)(=O)c2ccc3nc(-c4ccccc4)c(-c4ccccc4)nc3c2)c1` is lower in bioavailability: 96.9% for the first, 85.6% for the second.

Going from `CC(=O)NS(=O)(=O)c1ccc2nc(-c3ccccc3)c(-c3ccccc3)nc2c1` to `O=S(=O)(Nc1ccc(O)cc1)c1ccc2nc(-c3ccccc3)c(-c3ccccc3)nc2c1`, the bioavailability falls from 94.7% to 93.9%.

First: O=C(O)c1ccccc1NS(=O)(=O)c1ccc2nc(-c3ccccc3)c(-c3ccccc3)nc2c1
Second: O=S(=O)(Nc1ccc2ccccc2c1)c1ccc2nc(-c3ccccc3)c(-c3ccccc3)nc2c1
The bioavailability of the first is lower: 83.6% for the first, 100% for the second.

Going from `Cc1ccnc(NS(=O)(=O)c2ccc3nc(-c4ccccc4)c(-c4ccccc4)nc3c2)c1` to `O=[N+]([O-])c1ccc(NS(=O)(=O)c2ccc3nc(-c4ccccc4)c(-c4ccccc4)nc3c2)cc1`, the bioavailability falls from 100% to 87.6%.
